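Test compounds were applied to cells in 96-well plates for 48 hours at 5 doses. TGI marks complete inhibition of growth.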
Key:
Experiment in all cases: NCI-60 cell line screen, 48 h
[1] = test system: RPMI-8226 leukemia
[2] = test system: KM12 colon
[3] = test system: OVCAR-3 ovarian
[4] = test system: NCI-H226 lung
[5] = test system: HL-60(TB) leukemia
[6] = test system: UACC-62 melanoma
[7] = test system: IGROV1 ovarian
[8] = test system: SF-539 CNS
[9] = test system: MOLT-4 leukemia
[10] = test system: DLD-1 colon
[11] = test system: OVCAR-4 ovarian
[12] = test system: OVCAR-8 ovarian
[13] = test system: HT29 colon
[14] = test system: NCI-H23 lung
[15] = test system: 786-0 renal
[16] = test system: SW-620 colon
[17] = test system: SR leukemia
[18] = test system: SK-MEL-2 melanoma
[19] = test system: DMS 273 small cell lung
[20] = test system: MALME-3M melanoma
[21] = test system: HOP-92 NSCLC
[22] = test system: HCC-2998 colon
[23] = test system: NCI-H522 lung
[24] = test system: UO-31 renal
[25] = test system: UACC-257 melanoma
[26] = test system: M19-MEL melanoma
[27] = test system: CAKI-1 renal
[28] = test system: A498 renal
[29] = test system: TK-10 renal
[30] = test system: SK-MEL-28 melanoma
[31] = test system: CCRF-CEM leukemia
[32] = test system: K-562 leukemia
[33] = test system: XF 498 CNS
[34] = test system: DMS 114 small cell lung
[35] = test system: LOX IMVI melanoma
[36] = test system: EKVX NSCLC
[37] = test system: SF-268 CNS
[38] = test system: SNB-75 CNS
[39] = test system: SK-MEL-5 melanoma
[40] = test system: LXFL 529 NSCLC
[41] = test system: SNB-19 CNS
[42] = test system: M14 melanoma
[43] = test system: HOP-62 NSCLC
[44] = test system: COLO 205 colon
[45] = test system: RXF-631 renal
[46] = test system: A549 NSCLC
[47] = test system: SNB-78 CNS
[48] = test system: SN12C renal
[49] = test system: HCT-116 colon
[50] = test system: SF-295 CNS
[51] = test system: SK-OV-3 ovarian
[52] = test system: KM20L2 colon
[53] = test system: RXF 393 renal
[54] = test system: ACHN renal
[55] = test system: HCT-15 colon
[56] = test system: HOP-18 NSCLC
[57] = test system: NCI-H460 lung
[58] = test system: U251 CNS
[59] = test system: OVCAR-5 ovarian

## O=S1(=O)OCCOS(=O)(=O)C1(Cl)Cl
[1]
  TGI: > 100 µM
[2]
  TGI: > 100 µM
[3]
  TGI: > 100 µM
[4]
  TGI: > 100 µM
[5]
  TGI: > 100 µM
[6]
  TGI: > 100 µM
[7]
  TGI: > 100 µM
[8]
  TGI: > 100 µM
[9]
  TGI: > 100 µM
[10]
  TGI: > 100 µM
[11]
  TGI: > 100 µM
[12]
  TGI: > 100 µM
[13]
  TGI: > 100 µM
[14]
  TGI: > 100 µM
[15]
  TGI: > 100 µM
[16]
  TGI: > 100 µM
[17]
  TGI: > 100 µM
[18]
  TGI: > 100 µM
[19]
  TGI: > 100 µM
[20]
  TGI: > 100 µM
[21]
  TGI: > 100 µM
[22]
  TGI: > 100 µM
[23]
  TGI: > 100 µM
[24]
  TGI: > 100 µM
[25]
  TGI: > 100 µM
[26]
  TGI: > 100 µM
[27]
  TGI: > 100 µM
[28]
  TGI: > 100 µM
[29]
  TGI: > 100 µM
[30]
  TGI: > 100 µM
[31]
  TGI: > 100 µM
[32]
  TGI: > 100 µM
[33]
  TGI: > 100 µM
[34]
  TGI: > 100 µM
[35]
  TGI: > 100 µM
[36]
  TGI: > 100 µM
[37]
  TGI: > 100 µM
[38]
  TGI: > 100 µM
[39]
  TGI: > 100 µM
[40]
  TGI: > 100 µM
[41]
  TGI: > 100 µM
[42]
  TGI: > 100 µM
[43]
  TGI: > 100 µM
[44]
  TGI: > 100 µM
[45]
  TGI: > 100 µM
[46]
  TGI: > 100 µM
[47]
  TGI: > 100 µM
[48]
  TGI: > 100 µM
[49]
  TGI: > 100 µM
[50]
  TGI: > 100 µM
[51]
  TGI: > 100 µM

## Cc1ccccc1C=NC12CC3CC(CC(C3)C1)C2
[1]
  TGI: > 100 µM
[2]
  TGI: > 100 µM
[3]
  TGI: > 100 µM
[4]
  TGI: > 100 µM
[5]
  TGI: > 100 µM
[6]
  TGI: > 100 µM
[52]
  TGI: > 100 µM
[53]
  TGI: > 100 µM
[7]
  TGI: > 100 µM
[8]
  TGI: > 100 µM
[9]
  TGI: > 100 µM
[10]
  TGI: > 100 µM
[11]
  TGI: > 100 µM
[12]
  TGI: > 100 µM
[13]
  TGI: > 100 µM
[14]
  TGI: > 100 µM
[15]
  TGI: > 100 µM
[16]
  TGI: > 100 µM
[54]
  TGI: > 100 µM
[18]
  TGI: > 100 µM
[19]
  TGI: > 100 µM
[55]
  TGI: > 100 µM
[20]
  TGI: > 100 µM
[21]
  TGI: > 100 µM
[22]
  TGI: > 100 µM
[23]
  TGI: > 100 µM
[24]
  TGI: > 100 µM
[25]
  TGI: > 100 µM
[26]
  TGI: > 100 µM
[27]
  TGI: > 100 µM
[28]
  TGI: > 100 µM
[56]
  TGI: > 100 µM
[29]
  TGI: > 100 µM
[30]
  TGI: > 100 µM
[31]
  TGI: > 100 µM
[32]
  TGI: > 100 µM
[34]
  TGI: > 100 µM
[35]
  TGI: > 100 µM
[57]
  TGI: > 100 µM
[36]
  TGI: > 100 µM
[58]
  TGI: > 100 µM
[37]
  TGI: > 100 µM
[38]
  TGI: > 100 µM
[39]
  TGI: > 100 µM
[40]
  TGI: > 100 µM
[41]
  TGI: > 100 µM
[59]
  TGI: > 100 µM
[42]
  TGI: > 100 µM
[43]
  TGI: > 100 µM
[44]
  TGI: > 100 µM
[45]
  TGI: > 100 µM
[46]
  TGI: > 100 µM
[47]
  TGI: > 100 µM
[48]
  TGI: > 100 µM
[49]
  TGI: > 100 µM
[50]
  TGI: > 100 µM
[51]
  TGI: > 100 µM

## Cn1nc(-c2ccccc2)c2c(/C=C/c3ccc(Cl)cc3)onc2c1=O
[1]
  TGI: > 100 µM
[6]
  TGI: > 100 µM
[52]
  TGI: 69.5 µM
[53]
  TGI: > 100 µM
[7]
  TGI: > 100 µM
[8]
  TGI: 72.8 µM
[9]
  TGI: > 100 µM
[10]
  TGI: > 100 µM
[12]
  TGI: 84.3 µM
[13]
  TGI: > 100 µM
[14]
  TGI: > 100 µM
[15]
  TGI: 66 µM
[16]
  TGI: > 100 µM
[54]
  TGI: > 100 µM
[19]
  TGI: > 100 µM
[55]
  TGI: > 100 µM
[21]
  TGI: 57.1 µM
[23]
  TGI: 45.5 µM
[24]
  TGI: 71.4 µM
[26]
  TGI: > 100 µM
[56]
  TGI: 26.8 µM
[29]
  TGI: > 100 µM
[30]
  TGI: > 100 µM
[31]
  TGI: > 100 µM
[32]
  TGI: > 100 µM
[33]
  TGI: 43.6 µM
[34]
  TGI: > 100 µM
[35]
  TGI: 95.4 µM
[57]
  TGI: > 100 µM
[36]
  TGI: > 100 µM
[58]
  TGI: > 100 µM
[37]
  TGI: > 100 µM
[39]
  TGI: > 100 µM
[40]
  TGI: > 100 µM
[41]
  TGI: > 100 µM
[42]
  TGI: > 100 µM
[44]
  TGI: > 100 µM
[45]
  TGI: > 100 µM
[46]
  TGI: 35.4 µM
[48]
  TGI: > 100 µM
[49]
  TGI: 28.4 µM
[50]
  TGI: 68.8 µM

## OC(c1ccccc1)C1CC2C=CC1C2 (stereo not drawn)
[1]
  TGI: > 100 µM
[2]
  TGI: > 100 µM
[3]
  TGI: > 100 µM
[5]
  TGI: > 100 µM
[6]
  TGI: > 100 µM
[53]
  TGI: > 100 µM
[7]
  TGI: > 100 µM
[8]
  TGI: > 100 µM
[9]
  TGI: > 100 µM
[10]
  TGI: > 100 µM
[11]
  TGI: > 100 µM
[12]
  TGI: > 100 µM
[13]
  TGI: > 100 µM
[14]
  TGI: > 100 µM
[16]
  TGI: > 100 µM
[54]
  TGI: > 100 µM
[18]
  TGI: > 100 µM
[19]
  TGI: > 100 µM
[55]
  TGI: > 100 µM
[20]
  TGI: > 100 µM
[21]
  TGI: > 100 µM
[23]
  TGI: > 100 µM
[24]
  TGI: > 100 µM
[25]
  TGI: > 100 µM
[26]
  TGI: > 100 µM
[27]
  TGI: > 100 µM
[28]
  TGI: > 100 µM
[29]
  TGI: > 100 µM
[30]
  TGI: > 100 µM
[31]
  TGI: > 100 µM
[32]
  TGI: > 100 µM
[33]
  TGI: > 100 µM
[34]
  TGI: > 100 µM
[35]
  TGI: > 100 µM
[57]
  TGI: > 100 µM
[36]
  TGI: > 100 µM
[58]
  TGI: > 100 µM
[37]
  TGI: > 100 µM
[38]
  TGI: > 100 µM
[39]
  TGI: > 100 µM
[40]
  TGI: > 100 µM
[41]
  TGI: > 100 µM
[59]
  TGI: > 100 µM
[42]
  TGI: > 100 µM
[43]
  TGI: > 100 µM
[44]
  TGI: > 100 µM
[45]
  TGI: > 100 µM
[46]
  TGI: > 100 µM
[47]
  TGI: > 100 µM
[48]
  TGI: > 100 µM
[49]
  TGI: > 100 µM
[50]
  TGI: > 100 µM
[51]
  TGI: > 100 µM

From PubChem BioAssay (NCI)
